In patent EP0351625B1, “Anti-HIV activity of BV-3608” (Bristol-Myers Squibb Company, priority 1988, dated 1990):

Key:
[1] = test system: HTLV-IIIB infected MT-4 cells; assay: Inhibition of cytopathic effect of HIV on infected MT-4 cells (viable cell count); format: cell-based; settings: Human immunodeficiency virus 1, IIIB, MT4; HIV-infected MT-4 cells, 3 or 6 days (Figure 1); read-out: concentration affording virtually complete protection of MT-4 cells
Method: The cell line MT-4 disclosed by Harada, S. et al., in Virology, Vol. 146, pp. 272-281 (1985) is appropriate. This cell line features rapid and efficient replication of HTLV-III, followed by cytolysis.
(§1) MT-4 cells are maintained at 37°C in the complete medium. Two days before the start of an experiment, viable cells are counted by the trypan blue dye exclusion method and the concentration is adjusted to 30 x 10⁴ cells/mL.
Infection of the MT-4 cells with the virus is made at a multiplicity of infection (MOI) of 0.002. MT-4 cells (60 x 10⁴ cells/mL) are mixed with a 1:100 dilution of the viral preparation and incubated for 1 hour at 37°C for adsorption of the virus. After adsorption, HTLV-IIIB infected MT-4 cells are washed once and resuspended with complete medium. […]
The test substance is dissolved in dimethylsulfoxide (DMSO) and the solutions are then diluted with complete medium to concentrations of 10, 5.0, 2.5, and 1.25 mcg/ml to provide test solutions. […] To measure anti-HIV activity, the number of viable cells surviving in the test medium are counted by the trypan blue dye-exclusion method on day 3 and day 6 after infection of the cells. […]

[2] = test system: MOLT-4 and MOLT-4/HTLV-IIIB; assay: Cell fusion / giant cell formation in MOLT-4 and MOLT-4/HTLV-IIIB co-culture (cell size distribution); format: cell-based; settings: 25 µg/ml in medium, mixed culture; 11.8% without compound
Method: The effect on cell fusion which results in cell to cell infection and giant cell formation may be examined as follows. MOLT-4 and its virus-producing cell, MOLT-4/HTLV-IIIB are mixed in 1:1 in proportion of cell number and adjusted to a final concentration of 5 x 10⁵ cells/ml with the medium containing various concentrations of compounds, and then incubated for 10 hours in a CO₂ incubator. After incubation, the distribution of cell size is measured by a cell multisizer (Coulter Electronics Ltd., Luton, England). Viable cells are counted by trypan blue dye exclusion method. Giant cell formation is observed under a phase- contrast microscope. Particles with diameters of from 3 to 100 µm in diameter are observed in the co-cultures. Only those particles having a diameter of more than 9 µm are considered to be cells. Cell sizes in each of the cultures of MOLT-4 or MOLT-4/HTLV-IIIB are similar, and the proportion of cell particles with 12-14 µm diameters are virtually the same in each culture. The percentage of cell particles having more than a 20 µm diameter was 2.7% and in the MOLT-4 cell culture, and 2.4% in the MOLT-4/HTLV-IIIB cell culture. […] This is a reflection of the infectivity by cell-to-cell fusion of the MOLT-4/HTLV-IIIB cells for the uninfected MOLT-4 cells. The test method measures the ability of test substances to prevent or reduce this effect. […]

[3] = Acute toxicity in mice after single intravenous and intramuscular administrations; settings: mouse, in vivo
Method: The acute toxicity of Compound No. 28567 was determined in mice after single intravenous and intramuscular administrations.

[4] = Cytotoxicity on uninfected MT-4 cells (viable cell count, trypan blue dye exclusion); format: cell-based; settings: human
Method: as §1
The test substance is dissolved in dimethylsulfoxide (DMSO) and the solutions are then diluted with complete medium to concentrations of 10, 5.0, 2.5, and 1.25 mcg/ml to provide test solutions. Matched portions of HTLV-IIIB infected and uninfected MOLT-4 cells are adjusted to 60 x 10⁴ cells/mL and mixed with the same volume of diluted test solution to make the final concentration of 30 x 10⁴ cells/mL, and 5.0, 2.5, […], and 0.63 mcg/mL of test substance. To measure anti-HIV activity, the number of viable cells surviving in the test medium are counted by the trypan blue dye-exclusion method on day 3 and day 6 after infection of the cells.
Figure 1 illustrates the inhibition of cytopathic effect of the HIV virus on MT-4 cells by Compound No. 28567. First, the unshaded bars show the lack of cytotoxicity of the compound on uninfected MT-4 cells. Only at concentrations of 28567 in excess of 30 µg/ml is a noticeable or consistent reduction in the number of cells observed after 3 or 6 days, and even at 120 mg/ml, 60-70% of the cells survive.

For `CN[C@@H]1[C@H](O[C@@H]2OC[C@@H](O)[C@H](O)[C@H]2O)[C@@H](O)[C@H](O[C@H]2c3cc(C)c(C(=O)N[C@H](C)C(=O)O)c(O)c3-c3c(cc4c(c3O)C(=O)c3cc(OC)cc(O)c3C4=O)[C@@H]2O)O[C@@H]1C` [Compound No. 28567], the minimal effective concentration [1] was ≥ 3.5 µg/mL, the “proportion of particles exceeding 20 µm” value [2] was 2.7% and the sign of toxicity ([3]; 400 mg/kg) was “no sign of toxicity”. The LD50 ([3]; iv, read-out: LD₅₀) was 140 mg/kg, the MCC ([4]; after 3 or 6 days (Figure 1), read-out: concentration at which a noticeable or consistent reduction in the number of cells is observed) was > 30 µg/mL and the viability ([4]; at 120 mg/ml (so in the source), 3 or 6 days, read-out: cells survive) was 60 to 70%.
